SMILES strings stand for the structures.

Holding throughout (format): cell-based, human
The test system of experiment [1] is BON cells. Put plainly: Cell cycle progression, propidium iodide flow cytometry. The note with it: 48 hours, 5 μg/ml antibodies or rabbit IgG, 100 nM octreotide, FIG. 12. The method, then:
Propidium iodide dye was used in flow cytometry (Guava Cell Cycle Reagent Cat #4500-0220) to stain DNA and detect cell cycle progression in BON cells. Treatment conditions for the experiment were as follows: (i) D-PBS; (ii) 5 μg/ml rabbit IgG; (iii) 5 μg/ml anti-hSSTR subtype 2 antibodies; […] Treatments, as described above, were added to the cells once every 24 hours for a total of 48 hours. At the end of each treatment, cells were dissociated from the plate using 2 ml 1× trypsin-EDTA (Invitrogen Cat#2520). […] Next, phosphate buffer solution (D-PBS) (Invitrogen Cat#14190-144) was used as the exchange buffer and 15 ml Falcon tubes with samples were spun at 900 rpm using a table top centrifuge (Beckman Coulter). After centrifugation, supernatant was discarded and cell pellet was resuspended in 10 ml of PBS and this was repeated two times. […] Guava Cell Cycle Reagent (Guava Technologies, Cat#4500-0220) was used for detection by using the Guava PCA96 instrument. Cell Cycle data was analyzed by using Guava Cell Cycle module (Guava Technologies, Cat# 0500-0480). For further detail, please see Guava Cell Cycle Reagent protocol (Guava Technologies).

Experiment [2] relates to QGP cells. Nature of the experiment: MTS growth assay in pancreatic islet carcinoma cells. The following applies: antibodies 5 μg/ml every 24 hours, octreotide 100 nM every 24 hour, FIG. 15. The method, then:
The QGP cells were maintained in F12 HAM (Invitrogen, Cat#31765035)/D-MEM (Invitrogen, Cat#10567-014) (50/50) in 10% certified fetal bovine serum (FBS) (Invitrogen, Cat#16000-044) in 10-cm tissue culture plates (BD Biosciences, Cat#353003). QGP cells were first seeded at a density of 5000 cells/well in QGP cell growth media and grown in 96-well cell culture plates (Costar, Cat#3590) and allowed to attach and grow in 100 μl cell growth media. […] QGP cells constitutively make their own somatostatin. This negative growth autocrine loop was tested by adding 10 μg/ml neutralizing anti-SST antibody (SST antibody, right hand Y-axis of FIG. 15) once every 24 hours, and a significant growth rescue (29%) was observed. […] CellTiter 96® Aqueous One Solution Cell Proliferation Assay (MTS) (Promega, Cat#G3581), was used as described above to measure the growth doubling time for all QGP cells. Daily data collected was used to calculate the doubling time in hours. QGP cell growth increase or decrease as a result of each treatment is presented as a percent change along the x-axis in FIG. 15. The percent change for QGP cells in each treatment was derived by normalizing treated cells against untreated cells (as % of change in growth) in growth doubling time.

Experiment [3] relates to BON cells. Put plainly: Cell number after 48-hour treatment (Viacount). The following applies: after 2 days of daily treatment, 5 μg/ml antibody or rabbit IgG, 100 nM octreotide. The method, then:
A serotonin ([…]) assay was performed using Serotonin EIA (Biosource, Cat# KAPL10-0900) to measure serotonin release by BON cells over a 48-hour period with or without treatment. […] After 24 hours, the BON cells were subjected to six different daily treatments (at maximum dosages) and grown in FBS-free cell growth media for 2 days in a sterile tissue culture chamber at 37° C. with 6% CO2. These six treatments were: […] The anti-hSSTR Abs (4)-(6) were antibodies produced in the experiment described in Example 1. At the end of each treatment, 1× Halt Protease Inhibitor cocktail (Pierce, Cat# 78415) was immediately added to each sample and the media was collected from each sample and used for Serotonin detection. Next, cells were dissociated from the plate using 2 ml of 1× trypsin-EDTA (Invitrogen Cat#2520) in cell growth media and incubated at 37° C. with 6% CO2 for 5 minutes. Subsequently, an additional 8 ml of cell growth media was added to neutralize trypsin-EDTA, and subjected to 1000 rpm at 4° C. in 15 ml Falcon tubes using Beckman table top centrifuge. Guava Technologies PCA-96 instrument (tabletop flow cytometer) and Viacount flex reagent (Guava Technologies, Cat# 4500-0100) were then used to determine the number of cells for the abovementioned treatments. The results were as follows: […]

The test system of experiment [4] is BON cells. Put plainly: Guava Nexin apoptosis assay (Annexin V / 7-AAD). The following applies: 10 μg/ml rabbit IgG or antibodies, 100 nM octreotide, % of Total. The method, then:
Cells were then switched to growth media without FBS and allowed to grow for another 24 hours before applying treatments. Samples were collected and counted in accordance with Guava Technologies' Viacount Flex (Cat#4500-0110) instructions. At the end of each antibody treatment, cells were dissociated from the plate using 1× trypsin-EDTA (Invitrogen Cat#2520). […] Next, phosphate buffer solution (D-PBS) (Invitrogen Cat#14190-144) (Invitrogen) was used as the exchange buffer to resuspend the cell pellet. […] Detection was achieved by using Guava PCA96 instrument and data was analysed by using Guava Nexin software module as (Cat#0500-0250). […] Following the protocol for the Guava Nexin™ assay (Guava Technologies), two different dyes were used to stain for cells undergoing apoptosis: 7-AAD stains for dead and late apoptosis cells (upper right quadrant of each graph in FIG. 10), and Annexin V stains for cells undergoing apoptosis from the early stage (lower right quadrant of each graph in FIG. 10). […] Once every 24 hours for 72 hours (FIGS. 10B, 10C and 10D), cells were collected and tested for apoptosis status using the Guava Nexin™ assay (Guava Technologies).

Experiment [5] deals with sh-hSSTR subtype 5-BON cells. Put plainly: Growth in tetracycline-controlled shRNA knock-down cells. The note with it: FIG. 5.
Source text: To validate that cell growth inhibition is caused by the anti-hSSTR antibody in a subtype specific manner, BON cells were stably transfected with plasmids carrying short hairpin RNA shSSTR subtype 2 or shSSTR subtype 5 in which the expression of the shRNAs were under the control of tetracycline. Sh-hSSTR subtype 2 and sh-hSSTR subtype 5 destabilize the target receptor's messenger RNA and, consequently, knock down the expression of the target gene.

Take `C[C@@H](O)[C@@H]1NC(=O)[C@H](CCCCN)NC(=O)[C@@H](Cc2c[nH]c3ccccc23)NC(=O)[C@H](Cc2ccccc2)NC(=O)[C@@H](NC(=O)[C@H](N)Cc2ccccc2)CSSC[C@@H](C(=O)N[C@H](CO)[C@@H](C)O)NC1=O` [octreotide]: the “cell population in G0/G1” value in experiment [1] is on record as approximately 75%. Also, in experiment [2], the QGP growth suppression entry is “sensitive”. This compound also gave a number of cells in experiment [3] of 7 million cells. For the same compound, in experiment [4] (24 hours after treatment), the “7-AAD+” value was found to be 1.1%, the “Annexin V+” value turned out to be 4.3%, the “Early apoptotic cells (Lower Right Quadrant)” value is 3.3% and the “Late apoptotic cells (Upper Right Quadrant)” value came out at 1.0%. The “Nuclear Debris (Upper Left Quadrant)” value in experiment [4] (24 hours after treatment) stood at 0.1%. In experiment [4] (48 hours after treatment), the “7-AAD+” value came out at 10.9%, the “Annexin V+” value was 13.7%, the “Early apoptotic cells (Lower Right Quadrant)” value is reported as 3.8% and the “Nuclear Debris (Upper Left Quadrant)” value is reported as 1.0%. Also, in experiment [4] (72 hours after treatment), the “7-AAD+” value is on record as 19.8%, the “Annexin V+” value was 26.9%, the “Early apoptotic cells (Lower Right Quadrant)” value came out at 7.7% and the “Late apoptotic cells (Upper Right Quadrant)” value is on record as 19.2%. For the same compound, the “Nuclear Debris (Upper Left Quadrant)” value in experiment [4] (72 hours after treatment) is 0.6%. Besides, in experiment [5], the “growth doubling time under octreotide compared to BON cells” value was “did not change”.
